IC50 and melting point data for 13 molecules are collected here from US20240270720A1, “INDAZOLE YL BENZIMIDAZOLE DERIVATIVE OR PHARMACEUTICALLY ACCEPTABLE SALT THEREOF, AND USE THEREOF” (INDUSTRY-UNIVERSITY COOPERATION FOUNDATION HANYANG …, priority 2021, published 2024).

Positions count from the first letter of the chain named. Where two headings read alike, the source gives them in different places.

The target of one data set is T1, FLT3 wild type (Homo sapiens, UniProt P36888).
T1 construct: purchased Reaction Biology Corp. (Kinase HotSpot service)
T1 sequence (P36888 27-993): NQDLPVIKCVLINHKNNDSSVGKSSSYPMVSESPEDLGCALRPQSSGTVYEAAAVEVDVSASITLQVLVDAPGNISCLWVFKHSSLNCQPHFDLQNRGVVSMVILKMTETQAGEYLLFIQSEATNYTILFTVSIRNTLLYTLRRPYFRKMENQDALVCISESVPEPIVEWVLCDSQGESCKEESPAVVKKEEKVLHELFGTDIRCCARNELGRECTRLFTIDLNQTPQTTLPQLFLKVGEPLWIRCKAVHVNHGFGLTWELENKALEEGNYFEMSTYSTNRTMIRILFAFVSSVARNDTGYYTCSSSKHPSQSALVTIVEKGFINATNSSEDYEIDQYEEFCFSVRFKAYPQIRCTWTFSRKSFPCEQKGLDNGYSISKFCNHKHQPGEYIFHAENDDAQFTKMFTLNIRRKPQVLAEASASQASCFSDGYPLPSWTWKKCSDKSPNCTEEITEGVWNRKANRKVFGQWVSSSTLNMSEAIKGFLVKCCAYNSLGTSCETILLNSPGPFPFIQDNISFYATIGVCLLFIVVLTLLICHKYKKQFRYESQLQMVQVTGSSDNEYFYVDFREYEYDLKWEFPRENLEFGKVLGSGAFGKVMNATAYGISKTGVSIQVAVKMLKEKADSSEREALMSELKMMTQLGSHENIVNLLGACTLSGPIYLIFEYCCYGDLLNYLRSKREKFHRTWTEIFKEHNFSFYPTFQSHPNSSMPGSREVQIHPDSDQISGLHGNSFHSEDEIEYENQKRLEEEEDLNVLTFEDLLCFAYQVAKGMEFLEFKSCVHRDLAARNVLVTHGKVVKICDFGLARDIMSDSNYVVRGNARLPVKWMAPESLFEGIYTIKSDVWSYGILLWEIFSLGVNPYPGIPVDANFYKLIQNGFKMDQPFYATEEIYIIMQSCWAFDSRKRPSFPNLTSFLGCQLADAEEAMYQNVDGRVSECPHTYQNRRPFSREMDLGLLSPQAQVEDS
Briefly: Kinase HotSpot radiometric kinase assay (Reaction Biology). The class given is biochemical.

A further data set has as its target T2, FLT3 (D835Y) (Homo sapiens, UniProt P36888, D835Y).
T2 sequence (P36888 27-993 D835Y): T1 sequence (P36888 27-993) with D809Y
Briefly: Kinase HotSpot radiometric kinase assay (Reaction Biology).

Setting [1] is: read-out: FLT3 (D835Y) IC50, Table 1.

Procedure for FLT3 (D835Y): (§1) Reaction Biology Corp. Kinase HotSpot SM service (www.reactionbiology.com) was used to determine IC50 values for all compounds and kinase profiles. The analysis protocol was as follows: In a final reaction volume of 25 μL, a peptide substrate, [[sequence]], 5 μM, ATP 10 μM, and FLT3(h) (5 to 10 mU) were incubated with 25 mM Tris pH 7.5, 0.02 mM EGTA, 0.66 mg/mL myelin basic protein, 10 mM Mg acetate and [γ-33P-ATP] (a concentration of approximately 500 cpm/pmol was required for specific activity). The reaction was initiated by adding the Mg-ATP mixture. After incubation at room temperature for 40 minutes, the reaction was stopped by adding 5 μL of a 3% phosphoric acid solution. Thereafter, 10 μL of the reactant was spotted on a P30 filter mat and washed three times for 5 minutes in 75 mM phosphoric acid and once in methanol before drying and scintillation counting.
Procedure for FLT3 wild type: as §1

Broadly, the IC50 is the concentration that inhibits the measured activity by half. For orientation: melting point means the temperature, or range, at which the solid turns liquid. The molecule `CN1CCN(c2cc(C(=O)Nc3ccc4[nH]c(-c5ccc6cn[nH]c6c5)nc4c3)cc(C(F)(F)F)c2)CC1` [Compound 8a, N-(2-(1H-indazol-6-yl)-1H-benzo[di]imidazol-5-yl)-3-(4-methylpiperazin-1-yl)-5-(trifluoromethyl)benzamide] had a melting point of 228 to 230 °C. In addition, the IC50 on FLT3 wild type (Table 1, read-out: FLT3 IC50) was 181 nM. Besides, the IC50 on FLT3 (D835Y) (setting [1]) came to 0.021 µM.

In turn, `Cc1cn(-c2cc(C(=O)Nc3ccc4[nH]c(-c5ccc6cn[nH]c6c5)nc4c3)cc(C(F)(F)F)c2)cn1` [Compound 8b, N-(2-(1H-indazol-6-yl)-1H-benzo[di]imidazol-5-yl)-3-(4-methyl-1H-imidazol-1-yl)-5-(trifluoromethyl)benzamide] displayed a melting point of 239 to 241 °C. The IC50 on FLT3 wild type (Table 1, read-out: FLT3 IC50) worked out at 639 nM. Also, the concentration for half-maximal inhibition (IC50) at FLT3 (D835Y) (setting [1]) stood at 0.11 µM.

In turn, `O=C(Nc1ccc2[nH]c(-c3ccc4cn[nH]c4c3)nc2c1)c1cc(N2CCOCC2)cc(C(F)(F)F)c1` [Compound 8d, N-(2-(1H-indazol-6-yl)-1H-benzo[di]imidazol-5-yl)-3-morpholino-5-(trifluoromethyl)benzamide] displayed a melting point of 195 to 196 °C. For the same molecule, the IC50 on FLT3 wild type (Table 1, read-out: FLT3 IC50) came out at 1030 nM. Moreover, the half-maximal inhibitory concentration (IC50) at FLT3 (D835Y) (setting [1]) amounted to 0.151 µM.

In turn, `CN1CCN(c2ccc(C(=O)Nc3ccc4[nH]c(-c5ccc6cn[nH]c6c5)nc4c3)cc2C(F)(F)F)CC1` [Compound 8e, N-(2-(1H-indazol-6-yl)-1H-benzo[di]imidazol-5-yl)-4-(4-methylpiperazin-1-yl)-3-(trifluoromethyl)benzamide] came in with a melting point of 160 to 161 °C. In addition, the IC50 at FLT3 wild type (Table 1, read-out: FLT3 IC50) came out at 154 nM. For the same molecule, the IC50 at FLT3 (D835Y) (setting [1]) worked out at 0.044 µM.

Take `O=C(Nc1ccc2[nH]c(-c3ccc4cn[nH]c4c3)nc2c1)c1ccc(N2CCOCC2)c(C(F)(F)F)c1` [Compound 8f, N-(2-(1H-indazol-6-yl)-1H-benzo[di]imidazol-5-yl)-4-morpholino-3-(trifluoromethyl)benzamide]: the melting point lay in the range of 202 to 204 °C. The IC50 on FLT3 wild type (Table 1, read-out: FLT3 IC50) worked out at 2510 nM. In addition, the IC50 at FLT3 (D835Y) (setting [1]) stood at 0.37 µM.

With `CC(C)(C)c1cc(C(=O)Nc2ccc3[nH]c(-c4ccc5cn[nH]c5c4)nc3c2)no1` [Compound 8h, N-(2-(1H-indazol-6-yl)-1H-benzo[di]imidazol-5-yl)-5-(tert-butyl)isoxazole-3-carboxamide], the melting point lay within 147 to 149 °C. Moreover, the IC50 on FLT3 wild type (Table 1, read-out: FLT3 IC50) is approximately 700 nM. At FLT3 (D835Y), this molecule had an IC50 of 0.032 µM.

Turning to `O=C(Nc1ccc(Cl)c(Cl)c1)Nc1ccc2[nH]c(-c3ccc4cn[nH]c4c3)nc2c1` [Compound 8m, 1-(2-(1H-indazol-6-yl)-1H-benzo[di]imidazol-5-yl)-3-(3,4-dichlorophenyl)urea], the melting point was 144 to 146 °C. Also, on FLT3 wild type (Table 1, read-out: FLT3 IC50), the IC50 stood at 3080 nM. Moreover, on FLT3 (D835Y), the IC50 is approximately 1 µM.

`CCN(CC)C1CCN(c2cc(C(=O)Nc3ccc4[nH]c(-c5ccc6cn[nH]c6c5)nc4c3)cc(C(F)(F)F)c2)C1` (centres unmarked) [Compound 8o, N-(2-(1H-indazol-6-yl)-1H-benzo[di]imidazol-5-yl)-3-(3-(diethylamino)pyrrolidin-1-yl)-5-(trifluoromethyl)benzamide] registered a melting point of 221 to 223 °C. In addition, the IC50 on FLT3 wild type (Table 1, read-out: FLT3 IC50) came to 841 nM. The IC50 at FLT3 (D835Y) (setting [1]) is 0.12 µM.

As to `O=C(Nc1ccc2[nH]c(-c3ccc4cn[nH]c4c3)nc2c1)c1cc(N2CCN(C3CC3)CC2)cc(C(F)(F)F)c1` [Compound 8p, N-(2-(1H-indazol-6-yl)-1H-benzo[di]imidazol-5-yl)-3-(4-cyclopropylpiperazin-1-yl)-5-(trifluoromethyl)benzamide], the melting point is 154 to 156 °C. Further, the half-maximal inhibitory concentration (IC50) on FLT3 wild type (Table 1, read-out: FLT3 IC50) turned out to be 409 nM. Besides, the IC50 on FLT3 (D835Y) (setting [1]) was 0.131 µM.

Regarding `CCN1CCC(Nc2cc(C(=O)Nc3ccc4[nH]c(-c5ccc6cn[nH]c6c5)nc4c3)cc(C(F)(F)F)c2)CC1` [Compound 8t, N-(2-(1H-indazol-6-yl)-1H-benzo[di]imidazol-5-yl)-3-((1-ethylpiperidin-4-yl)amino)-5-(trifluoromethyl)benzamide], the melting point lay within 166 to 168 °C. At FLT3 wild type (Table 1, read-out: FLT3 IC50), the IC50 was determined as 286 nM. Moreover, the 50% inhibitory concentration (IC50) at FLT3 (D835Y) (setting [1]) worked out at 0.087 µM.

The molecule `CN1CCC(Oc2cc(C(=O)Nc3ccc4[nH]c(-c5ccc6cn[nH]c6c5)nc4c3)cc(C(F)(F)F)c2)CC1` [Compound 8u, N-(2-(1H-indazol-6-yl)-1H-benzo[di]imidazol-5-yl)-3-((1-methylpiperidin-4-yl)oxy)-5-(trifluoromethyl)benzamide] yielded a melting point of 293 to 295 °C. Moreover, on FLT3 (D835Y) (setting [1]), the half-maximal inhibitory concentration (IC50) was determined as 0.055 µM.

In turn, `CCN1CCN(Cc2cc(C(=O)Nc3ccc4[nH]c(-c5ccc6cn[nH]c6c5)nc4c3)cc(C(F)(F)F)c2)CC1(C)C` [Compound 8y, N-(2-(1H-indazol-6-yl)-1H-benzo[di]imidazol-5-yl)-3-((4-ethyl-3,3-dimethylpiperazine-1-yl)methyl)-5-(trifluoromethyl)benzamide] had a melting point of 255 to 257 °C. Besides, the 50% inhibitory concentration (IC50) on FLT3 wild type (Table 1, read-out: FLT3 IC50) was 145 nM. At FLT3 (D835Y) (setting [1]), the IC50 was determined as 0.042 µM.

`CCN1CCN(c2cc(C(=O)Nc3ccc4[nH]c(-c5ccc6cn[nH]c6c5)nc4c3)cc(C(F)(F)F)c2)CC1(C)C` [Compound 8z, N-(2-(1H-indazol-6-yl)-1H-benzo[di]imidazol-5-yl)-3-(4-ethyl-3,3-dimethylpiperazine-1-yl)-5-(trifluoromethyl)benzamide] showed a melting point of 153 to 154 °C. The half-inhibitory concentration (IC50) on FLT3 wild type (values given in nM, read-out: IC50 FLT3 wild type) stood at 65.9 nM. This molecule also displayed a concentration for half-maximal inhibition (IC50) against FLT3 (D835Y) of approximately 0.01 µM.
